Reference: ChEMBL document CHEMBL3045680, “Synthesis and Herbicidal Activity of 4-Thiazolone Derivatives and Their Effect on Plant Secretory Pathway” (J Pestic Sci, 2003)
Calls of active or inactive are those of the source. The calls are words filed in the database; no cut-off is given here.

Columns and labels:
[1] = system: Schoenoplectiella juncoides; experiment: Post-emergence herbicidal activity against Schoenoplectiella juncoides assessed as weed killing at 2 kg ai/ha measured 30 days after compound treatment under green house conditions; assay type: functional
Echinochloa oryzicola [2] = experiment: Post-emergence herbicidal activity against Echinochloa oryzicola assessed as weed killing at 2 kg ai/ha measured 30 days after compound treatment under green house conditions; assay type: functional
[3] = system: Schoenoplectiella juncoides; experiment: Pre-emergence herbicidal activity against Schoenoplectiella juncoides assessed as weed killing at 2 kg ai/ha measured 30 days after compound treatment under green house conditions; assay type: functional
Echinochloa oryzicola [4] = experiment: Pre-emergence herbicidal activity against Echinochloa oryzicola assessed as weed killing at 2 kg ai/ha measured 30 days after compound treatment under green house conditions; assay type: functional
Echinochloa oryzicola [5] = experiment: Inhibition of shoot growth of Echinochloa oryzicola seedlings exposed to 10 uM compound immediately after sowing measured after 2 days post compound treatment; assay type: functional, organism-based
Cyperus serotinus = experiment: Herbicidal activity against Cyperus serotinus assessed as compound application rate causing complete weed control measured 30 days after compound treatment under green house conditions; assay type: functional
Rotala indica = experiment: Herbicidal activity against Rotala indica assessed as compound application rate causing complete weed control measured 30 days after compound treatment under green house conditions; assay type: functional
Lindernia procumbens = experiment: Herbicidal activity against Lindernia procumbens assessed as compound application rate causing complete weed control measured 30 days after compound treatment under green house conditions; assay type: functional
Pontederia vaginalis = experiment: Herbicidal activity against Monochoria vaginalis assessed as compound application rate causing complete weed control measured 30 days after compound treatment under green house conditions; assay type: functional
[6] = system: Schoenoplectiella juncoides; experiment: Herbicidal activity against Schoenoplectiella juncoides assessed as compound application rate causing complete weed control measured 30 days after compound treatment under green house conditions; assay type: functional
Echinochloa oryzicola [7] = experiment: Herbicidal activity against Echinochloa oryzicola assessed as compound application rate causing complete weed control measured 30 days after compound treatment under green house conditions; assay type: functional
Oryza sativa = experiment: Post-emergence phytotoxicity against Oryza sativa (rice) plants exposed to compound applied on surface of water 7 days after transplantation assessed as plant killing at 0.5 kg ai/ha measured 3 weeks after compound treatment under green house conditions; assay type: organism-based; conditions: other, 504 h
Echinochloa oryzicola [8] = experiment: Post-emergence herbicidal activity against Echinochloa oryzicola assessed as weed killing at 0.5 kg ai/ha measured 30 days after compound treatment under green house conditions; assay type: functional
Echinochloa oryzicola [9] = experiment: (§1) Induction of plant secretory pathway perturbations in Echinochloa oryzicola seedlings root tips area exposed to 10 uM compound 3 days after sowing assessed as induction of curved cell wall membrane-cell wall interface measured after 8 hr days post compound treatment by electron microscopy; assay type: functional, organism-based
Echinochloa oryzicola [10] = experiment: as §1, with “vesicles accumulation at plasma” for “curved cell wall”; assay type: functional, organism-based
Echinochloa oryzicola [11] = experiment: Induction of plant secretory pathway perturbations in Echinochloa oryzicola seedlings root tips area exposed to 10 uM compound 3 days after sowing assessed as induction of obscuring of cell wall measured after 4 hr days post compound treatment by electron microscopy; assay type: functional, organism-based
Echinochloa oryzicola [12] = experiment: Induction of plant secretory pathway perturbations in Echinochloa oryzicola seedlings root tips area exposed to 10 uM compound 3 days after sowing assessed as induction of low electron dense area at membrane-cell wall interface measured after 4 hr days post compound treatment by electron microscopy; assay type: functional, organism-based
Echinochloa oryzicola [13] = experiment: Induction of plant secretory pathway perturbations in Echinochloa oryzicola seedlings root tips area exposed to 10 uM compound 3 days after sowing assessed as induction of curved cell wall membrane-cell wall interface measured after 4 hr days post compound treatment by electron microscopy; assay type: functional, organism-based
Echinochloa oryzicola [14] = experiment: Induction of plant secretory pathway perturbations in Echinochloa oryzicola seedlings root tips area exposed to 10 uM compound 3 days after sowing assessed as induction of endoplasmic reticulum swellings measured after 4 hr days post compound treatment by electron microscopy; assay type: functional, organism-based
Echinochloa oryzicola [15] = experiment: Induction of plant secretory pathway perturbations in Echinochloa oryzicola seedlings exposed to 10 uM compound 3 days after sowing assessed as induction of accumulation of dense vesicles around root tip golgi apparatus measured after 4 hr days post compound treatment by electron microscopy; assay type: functional, organism-based
Echinochloa oryzicola [16] = experiment: Induction of plant secretory pathway perturbations in Echinochloa oryzicola seedlings exposed to 10 uM compound 3 days after sowing assessed as induction of morphological changes in root tip golgi apparatus measured after 4 hr days post compound treatment by electron microscopy; assay type: functional, organism-based
Echinochloa oryzicola [17] = experiment: Induction of plant secretory pathway perturbations in Echinochloa oryzicola seedlings exposed to 10 uM compound 3 days after sowing assessed as induction of cytological changes in root apical tip area measured after 4 to 8 hr days post compound treatment by electron microscopy; assay type: functional, organism-based
Echinochloa oryzicola [18] = experiment: Induction of necrotic symptoms in root tip of Echinochloa oryzicola seedlings exposed to 10 uM compound measured after 24 to 72 hr days post compound treatment; assay type: functional, organism-based
Echinochloa oryzicola [19] = experiment: Induction of plant secretory pathway perturbations in Echinochloa oryzicola seedlings root tips area exposed to 10 uM compound 3 days after sowing assessed as induction of vesicles accumulation at plasma membrane-cell wall interface measured after 4 hr days post compound treatment by electron microscopy; assay type: functional, organism-based
Echinochloa oryzicola [20] = experiment: Inhibition of shoot growth of Echinochloa oryzicola seedlings exposed to 10 uM compound 3 days after sowing measured after 24 to 72 hr days post compound treatment; assay type: functional, organism-based
Echinochloa oryzicola [21] = experiment: Inhibition of root growth of Echinochloa oryzicola seedlings exposed to 10 uM compound 3 days after sowing measured after 24 to 72 hr days post compound treatment; assay type: functional, organism-based
Echinochloa oryzicola [22] = experiment: Inhibition of root growth of Echinochloa oryzicola seedlings exposed to 10 uM compound immediately after sowing measured after 3 days post compound treatment; assay type: functional, organism-based

Structure (SMILES): CN(Cc1ccccc1)C1=NC(=O)C(C)(C)S1
- Activity [1]: 0%
- Activity (Echinochloa oryzicola [2]): 0%
- Activity [3]: 40%
- Activity (Echinochloa oryzicola [4]): 20%

Structure (SMILES): CC1(C)SC(N2CCc3ccccc32)=NC1=O
- Activity [1]: 20%
- Activity (Echinochloa oryzicola [2]): 80%
- Activity [3]: 80%
- Activity (Echinochloa oryzicola [4]): 80%

Structure (SMILES): CCCC1(C)SC(N(C)c2ccccc2)=NC1=O (stereo not given)
- Activity [1]: 20%
- Activity (Echinochloa oryzicola [2]): 70%
- Activity [3]: 80%
- Activity (Echinochloa oryzicola [4]): 80%

Structure (SMILES): CC1COc2ccccc2N1C1=NC(=O)C(C)(CCCl)S1 (stereo not given)
- Activity (Echinochloa oryzicola [2]): 80%
- growth inhibition (GI) (Echinochloa oryzicola [5]): Active
- Activity (Cyperus serotinus): 0.25 KgAi/ha
- Activity (Rotala indica): 0.25 KgAi/ha
- Activity (Lindernia procumbens): 0.25 KgAi/ha
- Activity (Pontederia vaginalis): 0.25 KgAi/ha
- Activity [6]: 0.25 KgAi/ha
- Activity (Echinochloa oryzicola [7]): 0.25 KgAi/ha
- Activity (Oryza sativa): 0%
- Activity (Echinochloa oryzicola [8]): 70%
- Activity (Echinochloa oryzicola [9]): Active
- Activity (Echinochloa oryzicola [10]): Active
- Activity (Echinochloa oryzicola [11]): Active
- Activity (Echinochloa oryzicola [12]): Active
- Activity (Echinochloa oryzicola [13]): Active
- Activity (Echinochloa oryzicola [14]): Active
- Activity (Echinochloa oryzicola [15]): Active
- Activity (Echinochloa oryzicola [16]): Active
- Activity (Echinochloa oryzicola [17]): Active
- Activity (Echinochloa oryzicola [18]): Active
- Activity (Echinochloa oryzicola [19]): Active
- growth inhibition (GI) (Echinochloa oryzicola [20]): inactive
- growth inhibition (GI) (Echinochloa oryzicola [21]): Active
- growth inhibition (GI) (Echinochloa oryzicola [22]): Active

Structure (SMILES): CCN(CC)C(=O)n1cnc(S(=O)(=O)c2c(C)cc(C)cc2C)n1 [CAFENSTROLE]
- Activity (Oryza sativa): 20%
- Activity (Echinochloa oryzicola [8]): 80%

Structure (SMILES): CCC1(C)SC(N(C)c2ccccc2)=NC1=O (stereo not given)
- Activity [1]: 40%
- Activity (Echinochloa oryzicola [2]): 80%
- Activity [3]: 90%
- Activity (Echinochloa oryzicola [4]): 80%

Structure (SMILES): CN(C1=NC(=O)C(C)(C)S1)c1ccccc1
- Activity [1]: 60%
- Activity (Echinochloa oryzicola [2]): 80%
- Activity [3]: 80%
- Activity (Echinochloa oryzicola [4]): 90%

Structure (SMILES): CC1(C)SC(N2CCOc3ccccc32)=NC1=O
- Activity [1]: 40%
- Activity (Echinochloa oryzicola [2]): 90%
- Activity [3]: 80%
- Activity (Echinochloa oryzicola [4]): 90%

Structure (SMILES): CN(C1=NC(=O)CS1)c1ccccc1
- Activity [1]: 0%
- Activity (Echinochloa oryzicola [2]): 0%
- Activity [3]: 0%
- Activity (Echinochloa oryzicola [4]): 0%

Structure (SMILES): CCC1(CCCl)SC(N2c3ccccc3OCC2C)=NC1=O (stereo not given)
- Activity (Echinochloa oryzicola [2]): 100%
- Activity (Oryza sativa): 0%
- Activity (Echinochloa oryzicola [8]): 60%

Structure (SMILES): CCC1(CC)SC(N2c3ccccc3OCC2C)=NC1=O (stereo not given)
- Activity (Echinochloa oryzicola [2]): 100%
- Activity (Oryza sativa): 0%
- Activity (Echinochloa oryzicola [8]): 70%

Structure (SMILES): CCC1(CCl)SC(N2c3ccccc3OCC2C)=NC1=O (stereo not given)
- Activity (Echinochloa oryzicola [2]): 100%
- Activity (Oryza sativa): 20%
- Activity (Echinochloa oryzicola [8]): 50%

Structure (SMILES): CCCCN(C)C1=NC(=O)C(C)(C)S1
- Activity [1]: 0%
- Activity (Echinochloa oryzicola [2]): 0%
- Activity [3]: 0%
- Activity (Echinochloa oryzicola [4]): 0%

Structure (SMILES): CC1(C)SC(Nc2ccccc2)=NC1=O
- Activity [1]: 60%
- Activity (Echinochloa oryzicola [2]): 60%
- Activity [3]: 80%
- Activity (Echinochloa oryzicola [4]): 80%

Structure (SMILES): CC1SC(N(C)c2ccccc2)=NC1=O (stereo not given)
- Activity [1]: 20%
- Activity (Echinochloa oryzicola [2]): 20%
- Activity [3]: 20%
- Activity (Echinochloa oryzicola [4]): 20%

Structure (SMILES): CCN(C1=NC(=O)C(C)(C)S1)c1ccccc1
- Activity [1]: 20%
- Activity (Echinochloa oryzicola [2]): 60%
- Activity [3]: 80%
- Activity (Echinochloa oryzicola [4]): 80%

Structure (SMILES): CC1CCc2ccccc2N1C1=NC(=O)C(C)(C)S1 (stereo not given)
- Activity [1]: 80%
- Activity (Echinochloa oryzicola [2]): 90%
- Activity [3]: 90%
- Activity (Echinochloa oryzicola [4]): 90%

Structure (SMILES): CC1COc2ccccc2N1C1=NC(=O)C(C)(C)S1 (stereo not given)
- Activity [1]: 80%
- Activity (Echinochloa oryzicola [2]): 100%
- Activity [3]: 100%
- Activity (Echinochloa oryzicola [4]): 100%
- Activity (Oryza sativa): 20%
- Activity (Echinochloa oryzicola [8]): 60%

Structure (SMILES): CN(C1=NC(=O)C(C)(CCCl)S1)c1ccccc1 (stereo not given)
- Activity [1]: 80%
- Activity (Echinochloa oryzicola [2]): 100%
- Activity [3]: 90%
- Activity (Echinochloa oryzicola [4]): 80%

Structure (SMILES): CC1(C)SC(N2CCCc3ccccc32)=NC1=O
- Activity [1]: 60%
- Activity (Echinochloa oryzicola [2]): 90%
- Activity [3]: 90%
- Activity (Echinochloa oryzicola [4]): 90%

Structure (SMILES): CCC1(C)SC(N2c3ccccc3OCC2C)=NC1=O (stereo not given)
- Activity (Echinochloa oryzicola [2]): 100%
- Activity (Oryza sativa): 0%
- Activity (Echinochloa oryzicola [8]): 60%
